Measurements as given in patent US20020138123A1, “Medical electrical leads and indwelling catheters with enhanced biocompatibility and biostability” (Medtronic, Inc., priority 1998, published 2002).

Tests used:
Assay type in all cases: cell-based
human Mo/MØs = assay: Morphology of Mo/MØ monolayers on polyetherurethane cultured with DSP (OM, SEM); conditions: human Mo/MØs on PEU cultured with DSP in media, versus standard media
Method: Blood was anticoagulated with 2 units/ml sodium heparin (Upjohn Co., Kalamazoo, Mich.). Mononuclear cells (lymphocytes, monocytes) were isolated within 15 minutes by a one-step density gradient centrifugation procedure using Isopaque-1077 (a density gradient solution) according to a modified Boyum's method (Boyum et al., Blood Separation and Plasma Fractionation, 217-239, Wiley-Liss, Inc. (1991)). The mononuclear cells were harvested and washed twice with cold Hanks balanced salt solution (HBSS) without Ca^2+ and Mg^2+ to minimize cell aggregation. The cells were then resuspended in standard media (RPMI-1640, 10% Fetal bovine serum, 0.2M L-glutamine, 10 Ul/ml Penicillin-G, and 0.1 mg/ml Streptomycin). The cell suspension was seeded into several plastic tissue culture flasks and incubated in the presence of 5% CO2 at 37° C. for 1 hour (Ackerman et al., J. Immunol., 20, 1372-1374 (1978)). After this incubation, adherent (monocytes) were gently scrapped from the surface and resuspended in standard media. Nonadherent cells (lymphocytes) contained in the supernatant were recovered into sterile tubes, and the remaining nonadherent cells washed off with cold HBSS. […] The polymer surfaces were also evaluated using SEM following the 10-day treatment with FeCl2. […]

IL-1α = assay: Cytokine analysis, in vitro expression of IL-1α; conditions: human primary monocytes; DEX 2.5, 0.25, 0.025 μg/ml; methotrexate 50, 5, 0.5 μg/ml; dose- and incubation time-dependent
Method: (§1) In order to assess the in vitro expression of IL-1α and IL-8, human primary monocytes were incubated with various concentrations of DEX (2.5, 0.25, and 0.025 μg/ml) and methotrexate (50, 5, and 0.5 μg/ml).

IL-8 = assay: Cytokine analysis, in vitro expression of IL-8; conditions: human primary monocytes; DEX 2.5, 0.25, 0.025 μg/ml; methotrexate 50, 5, 0.5 μg/ml; dose- and incubation time-dependent
Method: as §1

Row | Structure (SMILES) | cell size of Mo/MØ monolayers (OM) (human Mo/MØs) | IL-1 inhibition (IL-1α) | IL-8 inhibition (IL-8)
1 | C[C@@H]1C[C@H]2[C@@H]3CCC4=CC(=O)C=C[C@]4(C)[C@@]3(F)[C@@H](O)C[C@]2(C)[C@@]1(O)C(=O)COP(=O)(O)O [DSP, dexamethasone sodium phosphate] | no increase in cell size | – | –
2 | CN(Cc1cnc2nc(N)nc(N)c2n1)c1ccc(C(=O)N[C@@H](CCC(=O)O)C(=O)O)cc1 [methotrexate] | – | higher rate of IL-1 and IL-8 inhibition | higher rate of IL-1 and IL-8 inhibition
